{
  "source": "patent US20210077477A1",
  "about": "“MICROGLIA MODULATORS FOR USE IN TREATMENT OF DEPRESSION” (priority 2018, published 2021)",
  "key": {"[1]": {"system": "brain microglia", "test": "Microglia depletion by PLX5622 diet (IBA-1 staining)", "type": "in vivo, mice", "details": "diet containing PLX5622 for weeks, incl. hippocampus"}, "[2]": {"system": "CUS-exposed mice", "test": "Sucrose preference test (anhedonia) in the CUS model", "type": "in vivo", "experimental": "(§1) The CUS schedule comprised daily exposure to two stressors in a random order over a 5-week period. The list of CUS stressors included: cage shaking for 1 h with loud music and lights on, lights on during the entire night (12 h), lights-off for 3 h during the daylight phase, flashing (stroboscopic) light for 6 h, placement in 4° C. cold room for 1 h, mild restraint (in small ventilated cages) for 2 h, 45° cage tilt for 14 h, wet sawdust in the cage for 14 h, exposure to rat odor for 2 h, noise in the room for 3 h, and water deprivation for 12 h during the dark period.\nFollowing baseline adaptation to sucrose for 3-4 days, mice were presented in the beginning of the dark circadian phase with two graduated drinking tubes, one containing tap water and the other 1% sucrose solution for 4 h. Sucrose preference was calculated as the percentage of sucrose consumption out of the total drinking volume."}, "[3]": {"system": "CUS-exposed mice", "test": "Social exploration test in the CUS model", "type": "in vivo", "experimental": "as §1\nEach subject was placed in an observation cage and allowed to habituate to the cage for 15 min, following which a male juvenile was placed in the cage. Social exploration, defined as the time of near contact between the nose of the subject and the juvenile conspecific, was then recorded for 2 min, using computerized in-house software."}, "[4]": {"system": "CUS-exposed mice", "test": "Porsolt forced swim test in the CUS model", "type": "in vivo", "experimental": "as §1\nMice were placed in a plastic cylinder (with a height of 30 cm and diameter of 20 cm), filled with 25° C. water. The time spent immobile, defined as the absence of all movement except for motions required to maintain head above water were recorded for 6 min, and automatically analyzed off-line using the EthoVision software (Noldus)."}, "[5]": {"system": "hippocampal neurogenesis", "test": "Hippocampal neurogenesis (DCX-positive cells in the DG)", "type": "in vivo, mice", "details": "CUS-exposed, PLX diet, DCX-stained cells in DG", "experimental": "Microglia were visualized using a primary antibody to the microglial marker ionized calcium-binding adapter molecule-1 (Iba-1) (rabbit anti Iba-1 1:250, Wako, Japan), followed by a secondary antibody (goat anti rabbit, 1:200; Invitrogen, Carlsbad, Calif., USA). The rate of neurogenesis in the hippocampus was measured by staining for doublecortin (DCX), using guinea pig anti-DCX (1:1,000, Millipore, Chemicon, Tamecula, Calif., USA) as the primary antibody, and biotin-SP-conjugated donkey anti-Guinea pig (1:200; Jackson Laboratories, West grove, PA, USA) as the secondary antibody, with final visualization using a conjugated streptavidin Ab (Jackson Laboratories, West grove, PA, USA). […]\nImages were captured using a Nikon Eclipse microscope and camera. Cells were manually counted using 10× magnification in a defined area exclusively containing the dentate gyrus (DG) or CA3 region of the dorsal hippocampus for each slide, using Nikon Imaging Elements Software (NIS-Elements). Four sections of each brain were counted. […] Microglia cell processes length was measured by capturing images at 40× magnification and by manual tracing of the processes of all Iba-1+ cells in these sections, using the Image)/FIJI software. […] Contacts were recorded if spatial overlap was observed on the body or on the dendrite branches of P2YR12-positive cells. […]"}, "[6]": {"system": "hippocampal gene transcripts", "test": "RNA sequencing of hippocampal gene transcription", "type": "in vivo, mice", "details": "for Log 2 (fold change) Con-Stress-Sham vs. PLX-Stress-Sham: hippocampus", "from_the_text": "RNA Sequencing, PolyA based mRNA was selected using oligodT beads, followed by fragmentation, first strand and second strand synthesis reactions. Illumina libraries were constructed while performing the end repair, A base addition, adapter ligation and PCR amplification steps with SPRI beads cleanup in between steps. Indexed samples were pooled and sequenced in an Illumina HiSeq 2500 machine in a single read mode.\nBioinformatics analysis. Adapters were trimmed using the cutadapt tool. Following adapter removal, reads that were shorter than 40 nucleotides were discarded (cutadapt option −m 40). Reads that had either a percentage of Adenine bases above 50% or a percentage of Thymine bases above 50% were discarded using a custom script. TopHat (v2.0.10) was used to align the reads to the mouse genome (mm10). Counting reads on mm10 refseq genes (downloaded from igenomes) was done with HTSeq-count (version 0.6.1p1). Differential expression analysis was performed using DESeq2 (1.6.3). Raw p values were adjusted for multiple testing (q-value, false discovery rate)."}, "[7]": {"system": "hippocampal gene transcripts", "test": "qPCR validation of hippocampal gene expression", "type": "in vivo", "details": "hippocampus, CUS-exposed mice", "experimental": "Mice were sacrificed by decapitation. Each brain was quickly removed on an ice-cold glass plate, and the hippocampus was dissected out under a binocular. Tissues were weighed, flash frozen in liquid nitrogen, and stored in −80° C. until RNA extraction. RNA was extracted using PerfectPure RNA extraction kit (5 PRIME, Darmstadt, Germany). RNA samples (2 μg) were reverse transcribed using the QuantiTect Reverse Transcription Kit from Qiagen (Hilden, Germany), including DNase treatment of contaminating genomic DNA. Expression of mRNA was determined by qPCR, using glyceraldehyde-3-phosphate dehydrogenase (Gapdh) as a normalizing gene. The following list of gene transcripts was validated: Ionized calcium-binding adapter molecule 1 (Iba1), the Purinergic receptor P2yr12, Lymphocyte-activation gene 3 (Lag-3), Cd180, tryptophan 2,3-dioxygenase (Tdo2), Phospholipase A2 Group IVE (Plag24e) Sox11, and Dopamine Receptor D1 (Drd1). Primers were designed using PrimerQuest IDT (Integrated DNA Technologies, Inc, San Diego, Calif., USA). The following primers were used, Gapdh, Forward: TCTCCCTCACAATTTCC (SEQ ID NO: 1); Reverse: GGGTGCAGCGAACTTTA (SEQ ID NO: 2). Drd1, Forward: […] (SEQ ID NO: 3); Reverse: […] (SEQ ID NO: 4). Tdo2, Forward: […] (SEQ ID NO: 5); Reverse: […] (SEQ ID NO: 6). Iba1, Forward: […] (SEQ ID NO: 7); Reverse: […] (SEQ ID NO: 8). Lag-3, Forward: […] (SEQ ID NO: 9); Reverse: […] (SEQ ID NO: 10). Cd180, Forward: […] (SEQ ID NO: 11); Reverse: […] (SEQ ID NO: 12). Sox11, Forward: […] (SEQ ID NO: 13); Reverse: […] (SEQ ID NO: 14). Plag24e, Forward: […] (SEQ ID NO: 15); Reverse: […] (SEQ ID NO: 16), and P2yr12 Forward: […] (SEQ ID NO: 17); Reverse: […] (SEQ ID NO: 18). Normal and mock reversed transcribed samples (in the absence of reverse transcriptase), as well as no template controls (total mix without cDNA) were run for each of the examined mRNAs. qPCR reactions were subjected to an initial step of 15 min at 95° C. to activate the HotStar Taq DNA polymerase, followed by 40 cycles consisting of 15 s at 94° C., 30 s at 60° C. and 30 s at 72° C. Fluorescence was measured at the end of each elongation step. Data were collected and analyzed using the StepOnePlus instrument and software (Thermo Fischer Scientific), and a threshold cycle value Ct was calculated from the exponential phase of each PCR sample. Expression levels of mRNAs were calculated and expressed in relative units of SYBR Green fluorescence."}, "[8]": {"system": "brain microglia", "details": "given chronically (more than 2-3 weeks); Danger et al., 2015; cited from earlier work"}, "[9]": {"details": "PLX5622 diet, non-stressed mice"}, "[10]": {"details": "CUS-exposed SHAM-treated mice, q<0.32, cutoff ±1.3-fold"}, "[11]": {"details": "CUS 5 weeks, antibody 100 μg i.p. every 4 days, 6 injections, Cipralex daily i.p., 3 weeks"}},
  "note": "“Also recorded” adds a separate entry of the source.",
  "data": [
    {"smiles": "COc1ncc(F)cc1CNc1ccc(Cc2c[nH]c3ncc(C)cc23)c(F)n1", "note": "[PLX5622]", "values": [
      {"measurement": "depletion of brain microglia", "setting": "[1]", "result": "near-complete depletion"},
      {"measurement": "anti-depressive effect of ECT under microglial depletion", "setting": "[2]; CUS-exposed, PLX5622 diet, 2.5-week course of ECT", "result": "markedly attenuated"},
      {"measurement": "effect of ECT on sucrose preference in PLX diet mice", "setting": "[2]; CUS-exposed, PLX diet, ECT 3 times/week for 2.5 weeks", "result": "only a small increase"},
      {"measurement": "development of CUS-induced depression", "setting": "[2]; PLX5622 diet, 5 weeks CUS, sucrose preference and social exploration", "result": "did not influence"},
      {"measurement": "sucrose preference, effect of microglia depletion by itself", "setting": "[2]; [9]", "result": "did not reduce"},
      {"measurement": "difference between effects of ECT on social exploration in PLX vs CDiet mice", "setting": "[3]; CUS-exposed, ECT 2.5 weeks", "result": "did not reach statistical significance"},
      {"measurement": "social exploration, effect of microglia depletion by itself", "setting": "[3]; [9]", "result": "did not reduce"},
      {"measurement": "forced swim immobility of ECT-treated PLX mice vs CDiet mice", "setting": "[4]; CUS-exposed, ECT 2.5 weeks", "result": "significantly greater forced swim immobility"},
      {"measurement": "immobility in forced swim, effect of microglia depletion by itself", "setting": "[4]; [9]", "result": "did not reduce"},
      {"measurement": "effect of ECT on hippocampal neurogenesis under microglia depletion", "setting": "[5]", "result": "completely prevented"},
      {"measurement": "effect of ECT on hippocampal neurogenesis under microglia depletion", "setting": "[5]; listed as PLX", "result": "significantly reduced"},
      {"measurement": "genes differentially regulated, PLX vs CDiet", "setting": "[6]; [10]", "result": 390, "unit": "genes"},
      {"measurement": "genes down-regulated, PLX vs CDiet", "setting": "[6]; [10]", "result": 338, "unit": "genes"},
      {"measurement": "genes up-regulated, PLX vs CDiet", "setting": "[6]; [10]", "result": 52, "unit": "genes"},
      {"measurement": "genes differentially regulated between SHAM vs ECT in PLX-treated groups", "setting": "[6]; CUS-exposed mice", "result": "no genes were differentially regulated"},
      {"measurement": "Log 2 (fold change) Con-Stress-Sham vs. PLX-Stress-Sham", "setting": "[6]; Cd40 transcript", "result": 0.159},
      {"measurement": "Log 2 (fold change) Con-Stress-Sham vs. PLX-Stress-Sham", "setting": "[6]; Cd80 transcript", "result": 0.371},
      {"measurement": "Log 2 (fold change) Con-Stress-Sham vs. PLX-Stress-Sham", "setting": "[6]; Cd86 transcript", "result": 2.092},
      {"measurement": "Log 2 (fold change) Con-Stress-Sham vs. PLX-Stress-Sham", "setting": "[6]; Cd180 transcript", "result": 1.892},
      {"measurement": "Log 2 (fold change) Con-Stress-Sham vs. PLX-Stress-Sham", "setting": "[6]; Cd276 transcript", "result": 0.019},
      {"measurement": "Log 2 (fold change) Con-Stress-Sham vs. PLX-Stress-Sham", "setting": "[6]; Ctla4 transcript", "result": 0.100},
      {"measurement": "Log 2 (fold change) Con-Stress-Sham vs. PLX-Stress-Sham", "setting": "[6]; Havcr2 (TIM-3) transcript", "result": 2.101},
      {"measurement": "Log 2 (fold change) Con-Stress-Sham vs. PLX-Stress-Sham", "setting": "[6]; Lag-3 transcript", "result": 1.968},
      {"measurement": "Log 2 (fold change) Con-Stress-Sham vs. PLX-Stress-Sham", "setting": "[6]; Lgals3 transcript", "result": 0.011},
      {"measurement": "Log 2 (fold change) Con-Stress-Sham vs. PLX-Stress-Sham", "setting": "[6]; PD-L1 transcript", "result": 0.164},
      {"measurement": "Log 2 (fold change) Con-Stress-Sham vs. PLX-Stress-Sham", "setting": "[6]; Pdcd1lg2 transcript", "result": "−0.373"},
      {"measurement": "Log 2 (fold change) Con-Stress-Sham vs. PLX-Stress-Sham", "setting": "[6]; Pdcd1 transcript", "result": "−0.669"},
      {"measurement": "Log 2 (fold change) Con-Stress-Sham vs. PLX-Stress-Sham", "setting": "[6]; Tdo2 transcript", "result": "−0.248"},
      {"measurement": "Log 2 (fold change) Con-Stress-Sham vs. PLX-Stress-Sham", "setting": "[6]; Tigit transcript", "result": "−0.804"},
      {"measurement": "Log 2 (fold change) Con-Stress-Sham vs. PLX-Stress-Sham", "setting": "[6]; Vtcn1 transcript", "result": "−0.905"},
      {"measurement": "Cd180 gene expression in PLX-treated mice", "setting": "[7]", "result": "lower expression levels"},
      {"measurement": "Drd1 expression, effect of the microglia depletion procedure by itself", "setting": "[7]", "result": "not affected"},
      {"measurement": "Iba1 expression, effect of the PLX5622 procedure", "setting": "[7]", "result": "significantly reduced"},
      {"measurement": "Lag-3 transcription in PLX-treated mice", "setting": "[7]", "result": "almost completely abolished"},
      {"measurement": "P2ry12 expression, effect of the PLX5622 procedure", "setting": "[7]", "result": "significantly reduced"},
      {"measurement": "Sox11 expression, effect of the microglia depletion procedure by itself", "setting": "[7]", "result": "not affected"},
      {"measurement": "Tdo2 expression in PLX5622-treated mice", "setting": "[7]", "result": "significantly increased"},
      {"measurement": "pla2g4e expression in PLX5622-treated mice", "setting": "[7]", "result": "significantly increased"},
      {"measurement": "microglial depletion", "setting": "[8]", "result": "near-complete microglial depletion"}
    ]},
    {"smiles": "CN(C)CCC[C@@]1(c2ccc(F)cc2)OCc2cc(C#N)ccc21", "note": "[escitalopram]", "values": [
      {"measurement": "sucrose preference after vs before chronic treatment", "setting": "[2]; [11]", "result": "had no such effect"},
      {"measurement": "social exploration (SE) after vs before chronic treatment", "setting": "[3]; [11]", "result": "significantly elevated; also recorded: significant increase"}
    ]}
  ]
}
